The record followed here is patent US7105506B2, “Tetracyclic compounds as PDE5-inhibitors” (Lilly Icos LLC, priority 2001, dated 2006).

By IC50 is commonly meant the point on the concentration scale where inhibition reaches its midpoint.

The test has as its target T1, recombinant human PDE5 (Homo sapiens, UniProt O76074).
T1 construct: host or cells: Saccharomyces cerevisiae protease-deficient strain BJ2-54 (ATCC 74465)
The experiment in a line: PDE5 inhibition (cGMP-PDE one-step assay). Format: biochemical. Particulars: In vitro. Here is the method:
The compounds of structural formula (I) were tested for an ability to inhibit PDE5. The ability of a compound to inhibit PDE5 activity is related to the IC50 value for the compound, i.e., the concentration of inhibitor required for 50% inhibition of enzyme activity. The IC50 value for compounds of structural formula (I) were determined using recombinant human PDE5.
Phosphodiesterase activity of the preparations was determined as follows. PDE assays utilizing a charcoal separation technique were performed essentially as described in Loughney et al. (1996). In this assay, PDE activity converts [32P]cAMP or [32P]cGMP to the corresponding [32P]5′-AMP or [32P]5′-GMP in proportion to the amount of PDE activity present. The [32P]5′-AMP or [32P]5′-GMP then was quantitatively converted to free [32P]phosphate and unlabeled adenosine or guanosine by the action of snake venom 5′-nucleotidase. […] The assay was performed at 30° C. in a 100 μL reaction mixture containing (final concentrations) 40 mM iris HCl (pH 8.0), 1 μM ZnSO4, 5 mM MgCl2, and 0.1 mg/mL bovine serum albumin (BSA). PDE enzyme was present in quantities that yield <30% total hydrolysis of substrate (linear assay conditions). The assay was initiated by addition of substrate ([…] [^32P]cAMP or cGMP), and the mixture was incubated for 12 minutes. Seventy-five (75) […] of Crotalus atrox venom then was added, and the incubation was continued for 3 minutes (15 minutes total). The reaction was stopped by addition of 200 μL of activated charcoal (25 mg/mL suspension in 0.1 M NaH2PO4, pH 4). After centrifugation. (750×g for 3 minutes) to sediment the charcoal, a sample of the supernatant was taken for radioactivity determination in a scintillation counter and the PDE activity was calculated.
cGMP-PDE activity of compounds of the present invention was measured using a one-step assay adapted from Wells et al., Biochim. Biophys. Acta, 384, 430 (1975). The reaction medium contained 50 mM Tris-HCl, pH 7.5, 5 mM magnesium acetate, 250 μg/ml 5′-Nucleotidase, 1 mM EGTA, and 0.15 μM 8-[H^3]-cGMP. Unless otherwise indicated, the enzyme used was a human recombinant PDE5 (ICOS Corp., Bothell, Wash.).
Compounds of the invention were dissolved in DMSO finally present at 2% in the assay.
`CN1CC(=O)N2[C@H](c3ccc4c(c3)OCO4)c3[nH]c4ccccc4c3[C@@H](c3ccccc3)[C@@H]2C1=O` (racemic) [Example 3, (+−, 6,12a cis-12,12a-trans)-6-Benzo-(1,3)-dioxol-5-yl-methyl-12-phenyl-2,3,6,7,12,12a-hexahydro-pyrazino[1′,2′:1,6]pyrido[3,4-b]indole-1,4-dione]: the IC50 was determined as 47 nM.
`C[C@@H]1c2c([nH]c3ccccc23)[C@@H](c2ccc3c(c2)OCO3)N2C(=O)CN(C)C(=O)[C@@H]12` (racemic) [Example 4a, (+−, cis, trans methyl)-6-Benzo[1,3]dioxol-5-yl-2,12-dimethyl-2,3,6,7,12,12a-hexahydropyrazino[1′,2′:1,6]pyrido[3,4-b]indole-1,3-dione]: the concentration for half-maximal inhibition (IC50) was found to be 4 nM.
On to `C[C@@H]1c2c([nH]c3ccccc23)[C@H](c2ccc3c(c2)OCO3)N2C(=O)CN(C)C(=O)[C@@H]12` (racemic) [Example 4b, (+−, trans, trans methyl)-6-Benzo[1,3]dioxol-5-yl-2,12-dimethyl-2,3,6,7,12,12a-hexahydropyrazino[1′,2′:1,6]pyrido[3,4-b]indole-1,3-dione], for which the IC50 was 63 nM.
The figure for `CN1CC(=O)N2[C@H](c3ccc4c(c3)OCO4)c3[nH]c4ccccc4c3C[C@]2(C)C1=O` [Example 1, (6R,12aR)-6-Benzo[1,3]dioxol-5-yl-2,12a-dimethyl-2,3,6,7,12,12a-hexahydro-pyrazino-[1,2′:1,6]pyrido[3,4-b]indole-1,4-dione] is 46 nM; for `CN1CC(=O)N2[C@H](Cc3c([nH]c4ccccc34)[C@@]2(C)c2ccc3c(c2)OCO3)C1=O` [Example 2a, (+−, Cis)-6-Benzo[1,3]dioxol-5-yl-2,6-dimethyl-2,3,6,7,12,12a-hexahydropyrazino-[1′,2′:1,6]pyrido[3,4-b]indole-1,4-dione] it is 685 nM; for `CN1CC(=O)N2[C@H](Cc3c([nH]c4ccccc34)[C@]2(C)c2ccc3c(c2)OCO3)C1=O` [Example 2b, (+−, trans)-6-Benzo[1,3]dioxol-5-yl-2,6-dimethyl-2,3,6,7,12,12a-hexahydropyrazino-[1′,2′:1,6]pyrido[3,4-b]indole-1,4-dione] it is 260 nM.
As for `CN1CC(=O)N2[C@H](Cc3c([nH]c4ccccc34)[C@@]2(O)c2ccc3c(c2)OCO3)C1=O` [Example 5, (6S,12aR)-6-Benzo[1,3]dioxol-5-yl-6-hydroxy-2-methyl-2,3,6,7,12,12a-hexahydropyrzino[1′,2′:1,6]pyrido[3,4-b]indole-1,4-dione], the figure is 142 nM.
